Experimental data as given in US11684644B2, “Composition for promoting absorption of phytochemicals” (MEIJI CO., LTD., priority 2018, dated 2023).
Like-named read-outs stand apart in the source and are kept apart here.

Columns and labels:
[1] = Evaluation for dissolvability of phytochemical (dissolution rate in water); conditions: for Dissolution rate: ultrapure water, shaken for 3 hours, centrifuged supernatant
Text: In the present invention, the “dissolution rate” is an index indicating dissolvability of a compound into water, and is also represented by the value, in terms of the percentage (%), obtained by dividing a concentration (w/v) of the compound in a supernatant, which is obtained by shaking the compound in pure water to dissolve the compound therein and by centrifuging the solution, by a concentration (w/v) of the compound in pure water before being dissolved therein. The concentration may be measured by using a spectrophotometer. […] The temperature condition in the measurement of the “dissolution rate” is set to 21±2° C.
Furthermore, 10 mL of ultrapure water was added to the glucoside phytochemical such that the amount of aglycone (portion other than carbohydrate obtained by hydrolysis of glucoside) can be equal to 33.3 mg; namely, 67.3 mg of rutin (33.3 mg of quercetin); 89.6 mg of α-glucosyl rutin (33.3 mg of quercetin); 67.3 mg of hesperidin (33.3 mg of hesperetin); or 71.0 mg of naringin (33.3 mg of naringenin). As for the terpenoids, in accordance with the administering amount used in Experiments, 10 mL of ultrapure water was added to 3.3 mg of each of β-carotene and lycopene. The solutions thus prepared were shaken for 3 hours, and then, were centrifuged at 2000×g for 10 minutes. The centrifuged supernatants were filtrated by using a 0.45 μL filter. […] Each compound was dissolved in 80% methanol or methanol to obtain a calibration curve; and then, the concentration of the centrifuged supernatant was obtained. A series of the operations above were carried out under the temperature condition of 21±2° C. The dissolution rate was calculated in accordance with the following formula. Dissolution rate (%)=[(concentration of the centrifuged supernatant after dissolution by shaking (w/v))+(concentration of the solution before dissolution by shaking (w/v)]×100

[2] = Experiment 1: promoting absorption of β-carotene, yogurts of OLL1251 and other strains; format: in vivo; conditions: male, SD, oral; rat serum, 5 mg/kg-body weight β-carotene, 11.3 g/kg-body weight yogurt, up to 480 minutes; read-out: Area Under the blood concentration-time Curve (AUC) of β-carotene (converted)
Protocol: (§1) Column temperature was set at 40° C.
The yogurts thus obtained contained 136 μg/g, 88 μg/g, and 68 μg/g of the polysaccharide, respectively.

[3] = Experiment 3: promoting absorption of β-carotene, yogurts of strain combinations; format: in vivo; conditions: male, SD, oral; rat serum, 5 mg/kg-body weight β-carotene, 11.3 g/kg-body weight yogurt, up to 480 minutes; read-out: Area Under the blood concentration-time Curve (AUC) of β-carotene (converted)
Protocol: as §1
The yogurts thus obtained contained 15 μg/g, 54 μg/g, and 67 μg/g of the polysaccharide, respectively.

[4] = Experiment 5: promoting absorption of β-carotene, comparison with other absorption promotors; format: in vivo; conditions: male, SD, oral; rat serum, 5 mg/kg-body weight β-carotene, 70 mg/kg-body weight polysaccharide, up to 480 minutes; read-out: Area Under the blood concentration-time Curve (AUC) of β-carotene (converted)
Protocol: A part of the yogurt of Experiment 4 (Lactobacillus bulgaricus OLL1251 and Streptococcus thermophilus OLS3290) was taken; and then, to the supernatant thereof was added ethanol the amount of which was three times as much as the supernatant. The resulting mixture was kept in a frozen state, and thereafter, the supernatant of the mixture was centrifuged to obtain a precipitate. This precipitate was freeze-dried to obtain a polysaccharide concentrate. In 11.3 g of the yogurt, 70 mg of the polysaccharide concentrate was included. Hereinafter, the polysaccharide concentrate obtained is called “lactic acid bacterium-originated polysaccharide concentrate”.

[5] = in vivo; conditions: male, SD, rat, 5 mg/kg
[6] = concentration of the centrifuged supernatant after shaking in ultrapure water, 21±2° C., glucosides in terms of the aglycone

Compound | Saturated solubility [1] | Dissolution rate ([1]; 21±2° C.) | other results
CC1=C(/C=C/C(C)=C/C=C/C(C)=C/C=C/C=C(C)/C=C/C=C(C)/C=C/C(=O)[C@]2(C)C[C@@H](O)CC2(C)C)C(C)(C)C[C@H](O)C1 [Capsanthin] | 0.1 or less mg/100 g | 0.1% or less | 
Oc1cc(O)c2c(c1)O[C@H](c1ccc(O)c(O)c1)[C@H](O)C2 [Epicatechin] | 287 mg/100 g |  | 
O=c1c(-c2ccc(O)cc2)coc2cc(O)cc(O)c12 [Genistein] |  | 0.2% | Saturated solubility [1, 6]: 0.6 mg/100 g
COc1ccc([C@@H]2CC(=O)c3c(O)cc(O[C@@H]4O[C@H](CO[C@@H]5O[C@@H](C)[C@H](O)[C@@H](O)[C@H]5O)[C@@H](O)[C@H](O)[C@H]4O)cc3O2)cc1O [Hesperidin] |  | 0.2% | Saturated solubility [1, 6]: 0.5 mg/100 g
O=c1c(O)c(-c2ccc(O)cc2)oc2cc(O)cc(O)c12 [Kaempferol] | 0.1 mg/100 g | 0.1% or less | 
CC1=C[C@H](O)CC(C)(C)[C@H]1/C=C/C(C)=C/C=C/C(C)=C/C=C/C=C(C)/C=C/C=C(C)/C=C/C1=C(C)C[C@@H](O)CC1(C)C [Lutein] | 0.1 or less mg/100 g | 0.1% or less | 
O=c1cc(-c2ccc(O)c(O)c2)oc2cc(O)cc(O)c12 [Luteolin] | 0.1 or less mg/100 g | 0.1% or less | 
CC(C)=CCC/C(C)=C/C=C/C(C)=C/C=C/C(C)=C/C=C/C=C(C)/C=C/C=C(C)/C=C/C=C(\C)CCC=C(C)C [Lycopene] | 0.1 or less mg/100 g | 0.1% or less | 
O=C1C[C@@H](c2ccc(O)cc2)Oc2cc(O)cc(O)c21 [Naringenin] | 1.1 mg/100 g | 0.3% | 
C[C@@H]1O[C@@H](OC[C@H]2O[C@@H](Oc3c(-c4ccc(O)c(O)c4)oc4cc(O)cc(O)c4c3=O)[C@H](O)[C@@H](O)[C@@H]2O)[C@H](O)[C@H](O)[C@H]1O [Rutin] | 1.0 mg/100 g |  | 
CC1=C(/C=C/C(C)=C/C=C/C(C)=C/C=C/C=C(C)/C=C/C=C(C)/C=C/C2=C(C)C[C@@H](O)CC2(C)C)C(C)(C)CCC1 [β-Cryptoxanthin] | 0.1 or less mg/100 g | 0.1% or less | 

More lines, main results first:

Saturated solubility [1] | Dissolution rate ([1]; 21±2° C.) | Compound | other results
55 mg/100 g | 17% | C[C@@H]1O[C@@H](O[C@H]2[C@H](Oc3cc(O)c4c(c3)O[C@H](c3ccc(O)cc3)CC4=O)O[C@H](CO)[C@@H](O)[C@@H]2O)[C@H](O)[C@H](O)[C@H]1O [Naringin] | 
0.1 mg/100 g | 0.1% or less | O=c1c(O)c(-c2ccc(O)c(O)c2)oc2cc(O)cc(O)c12 [Quercetin] | 
0.1 or less mg/100 g | 0.1% or less | CC1=CCCC(C)(C)C1/C=C/C(C)=C/C=C/C(C)=C/C=C/C=C(C)/C=C/C=C(C)/C=C/C1=C(C)CCCC1(C)C (stereo not drawn) [α-Carotene] | 
0.1 or less mg/100 g | 0.1% or less | CC1=C(/C=C/C(C)=C/C=C/C(C)=C/C=C/C=C(C)/C=C/C=C(C)/C=C/C2=C(C)CCCC2(C)C)C(C)(C)CCC1 [β-Carotene] | AUC [2]: 75 ng·h/mL; AUC [3]: 88.8 ng·h/mL; AUC [4]: 131 ng·h/mL; AUC [5]: 110 ng·h/mL
295 mg/100 g | 89% | α-Glucosyl rutin | 
